# Source: patent publication US12251387B2, “Substituted quinoxalines and benzo[c][1,2,5]oxadiazoles as DNA-PK inhibitors” (Vertex Pharmaceuticals Incorporated, priority 2013, dated 2025)
# Target: DNA-PK (Homo sapiens, UniProt P78527)
# Assay: DNA-PK Inhibition Assay (standard radiometric kinase assay, 33P-ATP, peptide substrate)
# Format: biochemical
# Settings: not given
# Method: Compounds were screened for their ability to inhibit DNA-PK kinase using a standard radiometric assay. Briefly, in this kinase assay the transfer of the terminal ^33P-phosphate in ^33P-ATP to a peptide substrate is interrogated. The assay was carried out in 384-well plates to a final volume of 50 μL per well containing approximately 6 nM DNA-PK, 50 mM HEPES (pH 7.5), 10 mM MgCl2, 25 mM NaCl, 0.01% BSA, 1 mM DTT, 10 μg/mL sheared double-stranded DNA (obtained from Sigma), 0.8 mg/mL DNA-PK peptide (Glu-Pro-Pro-Leu-Ser-Gln-Glu-Ala-Phe-Ala-Asp-Leu-Trp-Lys-Lys-Lys, obtained from American Peptide), and 100 μM ATP. Accordingly, compounds of the invention were dissolved in DMSO to make 10 mM initial stock solutions. Serial dilutions in DMSO were then made to obtain the final solutions for the assay. A 0.75 μL aliquot of DMSO or inhibitor in DMSO was added to each well, followed by the addition of ATP substrate solution containing ^33P-ATP (obtained from Perkin Elmer). The reaction was started by the addition of DNA-PK, peptide and ds-DNA. After 45 min, the reaction was quenched with 25 μL of 5% phosphoric acid. The reaction mixture was transferred to MultiScreen HTS 384-well PH plates (obtained from Millipore), allowed to bind for one hour, and washed three times with 1% phosphoric acid. Following the addition of 50 μL of Ultima Gold™ high efficiency scintillant (obtained from Perkin Elmer), the samples were counted in a Packard TopCount NXT Microplate Scintillation and Luminescence Counter (Packard BioScience). The Ki values were calculated using Microsoft Excel Solver macros to fit the data to the kinetic model for competitive tight-binding inhibition.
row,Compound,Ki
1,ClCCN1CCC(c2cnc(N[C@H]3CC[C@@H](Oc4cc(N5CCOCC5)cc5nccnc45)CC3)nc2)CC1 [Compound 522],< 100 nM

# Same assay, conditions: radiometric assay, approximately 6 nM DNA-PK, 100 μM ATP, 45 min; fit to competitive tight-binding inhibition; read-out: Ki for the inhibition of DNA-PK
row,Compound,Ki
1,c1cnc2c(O[C@H]3CC[C@@H](Nc4ncc(CCN5CCOCC5)cn4)CC3)cc(N3CCOCC3)cc2n1 [Compound 434],< 100 nM
2,CCOc1nccc(N[C@H]2CC[C@@H](Oc3cc(N4CCOCC4)cc4nccnc34)CC2)n1 [Compound 279],< 100 nM
3,CNC(=O)c1cc(N[C@H]2CC[C@@H](Oc3cc(C4=CCOCC4)cc4nccnc34)CC2)ncn1 [Compound 321],< 100 nM
4,CNc1ncc(OC)c(N[C@H]2CC[C@@H](Oc3cc(N4CCOCC4)cc4nccnc34)CC2)n1 [Compound 387],< 100 nM
5,Clc1nc(N[C@H]2CC[C@@H](Oc3cc(N4CCOCC4)cc4nccnc34)CC2)c2cn[nH]c2n1 [Compound 423],< 100 nM
6,COc1cccc(N[C@H]2CC[C@@H](Oc3cc(N4CCOCC4)cc4nccnc34)CC2)c1 [Compound 408],< 100 nM
7,c1cc(-c2nnco2)nc(N[C@H]2CC[C@@H](Oc3cc(N4CCOCC4)cc4nccnc34)CC2)n1 [Compound 461],< 100 nM
8,Fc1c(NC2CCOC2)ncnc1N[C@H]1CC[C@@H](Oc2cc(N3CCOCC3)cc3nccnc23)CC1 (stereo partly shown) [Compound 379],< 100 nM
9,Cn1nnnc1-c1cnc(N[C@H]2CC[C@@H](Oc3cc(N4CCOCC4)cc4nccnc34)CC2)nc1 [Compound 459],< 100 nM
10,NC1(c2ccc(N[C@H]3CC[C@@H](Oc4cc(N5CCOCC5)cc5nccnc45)CC3)cn2)CC1 [Compound 466],< 100 nM
11,c1cc(C2CC2)nc(N[C@H]2CC[C@@H](Oc3cc(N4CCOCC4)cc4nccnc34)CC2)n1 [Compound 455],< 100 nM
12,Cc1nccc(N[C@H]2CC[C@@H](Oc3cc(C4=CCOC4)cc4nccnc34)CC2)n1 [Compound 289],< 100 nM
13,Cc1ncncc1N[C@H]1CC[C@@H](Oc2cc(N3CCOCC3)cc3nccnc23)CC1 [Compound 448],< 100 nM
14,COC(=O)c1ccc(N[C@H]2CC[C@@H](Oc3cc(N4CCOCC4)cc4nccnc34)CC2)cc1OC [Compound 394],< 100 nM
15,CN(C)c1nccc(N[C@H]2CC[C@@H](Oc3cc(N4CCOCC4)cc4nccnc34)CC2)n1 [Compound 453],< 100 nM
16,COc1cncc(NC[C@H]2CC[C@@H](Oc3cc(N4CCOCC4)cc4nccnc34)CC2)c1 [Compound 347],< 100 nM
17,Cc1ccncc1N[C@H]1CC[C@@H](Oc2cc(N3CCOCC3)cc3nccnc23)CC1 [Compound 443],< 100 nM
18,Cn1nc(N[C@H]2CC[C@@H](Oc3cc(N4CCOCC4)cc4nccnc34)CC2)c2cccnc21 [Compound 329],< 100 nM
19,FC(F)(F)c1cnc(N[C@H]2CC[C@@H](Oc3cc(N4CCOCC4)cc4nccnc34)CC2)cn1 [Compound 366],< 100 nM
20,NC(=O)c1csc(N[C@H]2CC[C@@H](Oc3cc(N4CCOCC4)cc4nccnc34)CC2)n1 [Compound 331],< 100 nM
21,CN1CC[C@@H](Nc2ncnc(N[C@H]3CC[C@@H](Oc4cc(N5CCOCC5)cc5nccnc45)CC3)c2F)C1 [Compound 327],< 100 nM
22,CN(C)C(=O)c1cc(N[C@H]2CC[C@@H](Oc3cc(N4CCOCC4)cc4nccnc34)CC2)ncn1 [Compound 361],< 100 nM
23,Clc1cncnc1N[C@H]1CC[C@@H](Oc2cc(N3CCOCC3)cc3nccnc23)CC1 [Compound 409],< 100 nM
24,CC(=O)N1CCC(NC(=O)N[C@H]2CC[C@@H](Oc3cc(N4CCOCC4)cc4nccnc34)CC2)CC1 [Compound 364],< 100 nM
25,Cn1ccc(N[C@H]2CC[C@@H](Oc3cc(N4CCOCC4)cc4nccnc34)CC2)cc1=O [Compound 311],< 100 nM
26,Clc1ccc(N[C@H]2CC[C@@H](Oc3cc(N4CCOCC4)cc4nccnc34)CC2)nn1 [Compound 40],< 100 nM
27,Cc1cc(N[C@H]2CC[C@@H](Oc3cc(N4CCOCC4)cc4nccnc34)CC2)cc(C)n1 [Compound 286],< 100 nM
28,CC(C)(O)CNc1ncnc(N[C@H]2CC[C@@H](Oc3cc(N4CCOCC4)cc4nccnc34)CC2)c1F [Compound 377],< 100 nM
29,O=C(N[C@H]1CC[C@@H](Oc2cc(N3CCOCC3)cc3nccnc23)CC1)N1CCCC1 [Compound 415],< 100 nM
30,O=C(N[C@H]1CC[C@@H](Oc2cc(N3CCOCC3)cc3nccnc23)CC1)N1CCCCC1 [Compound 416],< 100 nM

# The remaining lines, values ahead:
row,Ki,Compound
1,< 100 nM,Fc1cccnc1N[C@H]1CC[C@@H](Oc2cc(N3CCOCC3)cc3nccnc23)CC1 [Compound 591]
2,< 100 nM,CSc1nc(N[C@H]2CC[C@@H](Oc3cc(N4CCOCC4)cc4nccnc34)CC2)cs1 [Compound 628]
3,< 100 nM,COCCOc1cnc(N[C@H]2CC[C@@H](Oc3cc(N4CCOCC4)cc4nccnc34)CC2)nc1 [Compound 612]
4,< 100 nM,COCCOc1ccnc(N[C@H]2CC[C@@H](Oc3cc(N4CCOCC4)cc4nccnc34)CC2)n1 [Compound 558]
5,< 100 nM,CN(C)Cc1cnc(N[C@H]2CC[C@@H](Oc3cc(N4CCOCC4)cc4nccnc34)CC2)nc1 [Compound 529]
6,< 100 nM,CCOc1cccc(N[C@H]2CC[C@@H](Oc3cc(N4CCOCC4)cc4nccnc34)CC2)n1 [Compound 588]
7,< 100 nM,OC(c1ccc(N[C@H]2CC[C@@H](Oc3cc(N4CCOCC4)cc4nccnc34)CC2)nc1)C(F)(F)F (stereo partly shown) [Compound 630]
8,< 100 nM,CN1CCN(Cc2nccc(N[C@H]3CC[C@@H](Oc4cc(N5CCOCC5)cc5nccnc45)CC3)n2)CC1 [Compound 484]
9,< 100 nM,OC1CCN(c2cc(N[C@H]3CC[C@@H](Oc4cc(N5CCOCC5)cc5nccnc45)CC3)ncn2)CC1 [Compound 492]
10,< 100 nM,Cc1ncc(C)c(N[C@H]2CC[C@@H](Oc3cc(N4CCOCC4)cc4nccnc34)CC2)n1 [Compound 490]
11,< 100 nM,c1cnc2c(O[C@H]3CC[C@@H](Nc4ncc(OCCN5CCOCC5)cn4)CC3)cc(N3CCOCC3)cc2n1 [Compound 585]
12,< 100 nM,c1cnc2c(O[C@H]3CC[C@@H](Nc4cc5ncnn5cn4)CC3)cc(N3CCOCC3)cc2n1 [Compound 510]
13,< 100 nM,COCCOc1cc(N[C@H]2CC[C@@H](Oc3cc(N4CCOCC4)cc4nccnc34)CC2)ncn1 [Compound 539]
14,< 100 nM,c1cnc2c(O[C@H]3CC[C@@H](Nc4ncc(CN5CCCC5)cn4)CC3)cc(N3CCOCC3)cc2n1 [Compound 528]
15,< 100 nM,OC1(c2cnc(N[C@H]3CC[C@@H](Oc4cc(N5CCOCC5)cc5nccnc45)CC3)nc2)COC1 [Compound 610]
16,< 100 nM,OCc1cnc(N[C@H]2CC[C@@H](Oc3cc(N4CCOCC4)cc4nccnc34)CC2)cn1 [Compound 577]
17,< 100 nM,c1cnc2c(O[C@H]3CC[C@@H](Nc4ncnc5[nH]ccc45)CC3)cc(N3CCOCC3)cc2n1 [Compound 515]

row,Ki,Compound
1,< 100 nM,c1cnc2c(O[C@H]3CC[C@@H](Nc4ncc5c(n4)OCC5)CC3)cc(N3CCOCC3)cc2n1 [Compound 621]
2,< 100 nM,c1cnc2c(O[C@H]3CC[C@@H](Nc4ncnc5cc[nH]c45)CC3)cc(N3CCOCC3)cc2n1 [Compound 517]
3,< 100 nM,COc1nc(N[C@H]2CC[C@@H](Oc3cc(N4CCOCC4)cc4nccnc34)CC2)nc(OC)n1 [Compound 608]
4,< 100 nM,CC1(C)CC(c2cnc(N[C@H]3CC[C@@H](Oc4cc(N5CCOCC5)cc5nccnc45)CC3)nc2)CC(C)(C)N1 [Compound 550]
5,< 100 nM,c1cc(N[C@H]2CC[C@@H](Oc3cc(N4CCOCC4)cc4nccnc34)CC2)nc(N2CCOCC2)c1 [Compound 590]
6,< 100 nM,COc1cc(N[C@H]2CC[C@@H](Oc3cc(N4CCOCC4)cc4nccnc34)CC2)nc(N(C)C)n1 [Compound 553]
7,< 100 nM,CN1CCc2nc(N[C@H]3CC[C@@H](Oc4cc(N5CCOCC5)cc5nccnc45)CC3)ncc2C1 [Compound 632]
8,< 100 nM,Cc1cc(N[C@H]2CC[C@@H](Oc3cc(N4CCOCC4)cc4nccnc34)CC2)n2cnnc2n1 [Compound 500]
9,< 100 nM,c1cc2ccoc2c(N[C@H]2CC[C@@H](Oc3cc(N4CCOCC4)cc4nccnc34)CC2)n1 [Compound 470]
10,< 100 nM,Cn1nc(N[C@H]2CC[C@@H](Oc3cc(N4CCOCC4)cc4nccnc34)CC2)ccc1=O [Compound 578]
11,< 100 nM,Cc1cnc2c(O[C@H]3CC[C@@H](Nc4ncc(C5CCN(C)CC5)cn4)CC3)cc(N3CCOCC3)cc2n1 [Compound 543]
12,< 100 nM,c1cc(OCCN2CCOCC2)nc(N[C@H]2CC[C@@H](Oc3cc(N4CCOCC4)cc4nccnc34)CC2)n1 [Compound 560]
13,< 100 nM,c1nc2c(c(N[C@H]3CC[C@@H](Oc4cc(N5CCOCC5)cc5nccnc45)CC3)n1)COC2 [Compound 475]
14,< 100 nM,CCOc1ccc(N[C@H]2CC[C@@H](Oc3cc(N4CCOCC4)cc4nccnc34)CC2)nc1 [Compound 658]
15,< 100 nM,CN(C)c1ccnc(N[C@H]2CC[C@@H](Oc3cc(N4CCOCC4)cc4nccnc34)CC2)n1 [Compound 489]
16,< 100 nM,OCCN1CCN(c2cc(N[C@H]3CC[C@@H](Oc4cc(N5CCOCC5)cc5nccnc45)CC3)ncn2)CC1 [Compound 499]
